Tests used:
CARM1 = target: T1, CARM1 (Homo sapiens, UniProt Q86X55); assay: CARM1 degradation by western blot in MDA-MB-231 cells; format: cell-based; conditions: triple-negative MDA-MB-231 cells, 0.5 μM, after 24 or 48 h
T1 sequence (Q86X55 1-608): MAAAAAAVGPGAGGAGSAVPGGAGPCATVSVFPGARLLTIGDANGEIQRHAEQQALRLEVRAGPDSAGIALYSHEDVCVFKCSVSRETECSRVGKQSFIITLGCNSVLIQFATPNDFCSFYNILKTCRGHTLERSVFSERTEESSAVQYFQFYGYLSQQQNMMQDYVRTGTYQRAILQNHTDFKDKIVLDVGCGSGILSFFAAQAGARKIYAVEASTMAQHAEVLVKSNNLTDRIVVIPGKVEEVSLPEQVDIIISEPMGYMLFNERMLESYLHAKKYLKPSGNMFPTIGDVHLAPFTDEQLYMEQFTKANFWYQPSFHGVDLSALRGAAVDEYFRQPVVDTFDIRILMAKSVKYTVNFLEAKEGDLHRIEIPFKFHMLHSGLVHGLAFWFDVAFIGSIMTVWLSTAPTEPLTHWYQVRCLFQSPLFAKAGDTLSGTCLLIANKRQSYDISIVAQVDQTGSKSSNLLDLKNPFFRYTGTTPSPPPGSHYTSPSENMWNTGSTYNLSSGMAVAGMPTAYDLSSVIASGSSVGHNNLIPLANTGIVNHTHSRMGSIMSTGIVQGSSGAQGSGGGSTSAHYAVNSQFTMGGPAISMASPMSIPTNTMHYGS
Source text: FIGS. 7A-7F. […] Cell lysates were collected and CARM1, methyl-BAF155, total BAF155, methyl-PABP1, and total PABP1 levels were detected by Western blot. […] Cell lysates were collected and CARM1, methyl-BAF155, total BAF155 levels were detected by Western blot. […] Cell proliferation rate normalized to day 0 was plotted. […] Migrated cells were stained with 1% crystal violet and the percentage of migrated cells were plotted. Data mean±s.d. ***. P≤0.001.
Western Blot Assay. Cells were harvested and washed with Dulbecco's phosphate-buffered saline (PBS), then lysed with 1×RIPA lysis buffer (50 mM Tris pH 7.5, 150 mM NaCl, 1% NP-40, 0.5% sodium deoxycholate, and 0.1% sodium dodecyl sulfate) supplemented with 1 mM phenylmethylsulfonyl fluoride, 10 μg/mL aprotinin, 1 μM leupeptin, and 10 μg/mL pepstatin on ice for 20 min. The supernatant was collected after spinning down at 15000 RPM at 4 degrees Celsius for 10 min. The concentration of whole lysates was quantified using a Bradford assay. 50-75 μg of cell lysates was boiled in 4× Laemmli Loading Dye and boiled at 100 degrees Celsius for 10 min. 25 μg were run in 8% SDS-PAGE gels and transferred to nitrocellulose membranes. Blots were blocked in 5% skim milk in PBST [PBS and 0.1% Tween 20] for 45 min, then incubated with primary antibodies at 4 degrees Celsius overnight. […]

MCF7 cells = assay: Cell proliferation assay, MCF7 cells; format: cell-based, human; conditions: 0.5 μM

## CNCCN1CCC(c2cc(CN(C)C(=O)c3cccc(Oc4ccc(OCC(=O)N5CCC(CN6CCC(CN7CCN(CC(=O)N[C@H](C(=O)N8C[C@H](O)C[C@H]8C(=O)N[C@@H](C)c8ccc(-c9scnc9C)cc8)C(C)(C)C)CC7)CC6)CC5)cc4)c3)ccn2)CC1 [Compound 3b, (2S,4R)-1-((S)-3,3-dimethyl-2-(2-(4-((1-((1-(2-(4-(3-(methyl((2-(1-(2-(methylamino)ethyl)piperidin-4-yl)pyridin-4-yl)methyl)carbamoyl)phenoxy)phenoxy)acetyl)piperidin-4-yl)methyl)piperidin-4-yl)methyl)piperazin-1-yl)acetamido)butanoyl)-4-hydroxy-N—((S)-1-(4-(4-methylthiazol-5-yl)phenyl)ethyl)pyrrolidine-2-carboxamide]
CARM1
  CARM1 degradation: effectively degraded
MCF7 cells
  Cell proliferation: not to inhibit cell proliferation
